The source of these data is US12391657B2, “Small molecules that bind and/or modulate differentforms of tau oligomers” (The Board of Regents of the University of Texas System, priority 2019, dated 2025).

Entries after “also recorded” stand apart in the source; their conditions may differ.

For data set [1], the target named is T1, recombinant tau oligomers (TauO) (Homo sapiens, UniProt P10636).
T1 construct: made in house
Briefly: Direct ELISA of recombinant tau oligomers with and without compounds. As to conditions: increased concentration of curcumin. The format is biochemical. As to the method: ELISA assay was conducted as previously described (Lasagna-Reeves, Castillo-Carranza et al. 2010). […] After washing three times with TBS-T, plates were blocked for 1 hour at 37° C. with 120 μl of 10% non-fat milk in TBS-T. Plates were then washed three times with TBS-T, before probing with 100 μL of primary antibodies for 1 hour at 37° C., T22 (diluted 1:250 in 5% non-fat milk in TBS-T) and Tau 5 (diluted 1:10000 in 5% non-fat milk in TBS-T), respectively . Plates were then washed three times with TBS-T, and probed with 100 μL of horseradish peroxidase-conjugated anti-rabbit or anti-mouse IgG (Promega, Madison, WI) (diluted 1:10000 in 5% non-fat milk in TBS-T). After 1 hour of incubation at 37° C., plates were washed three times with TBS-T and developed with 3, 3, 5, 5-tetramethylbenzidine (TMB-lcomponent substrate, KPL, Gaithersburg, MD). The reaction was stopped by using 100 μL 1M HCl and samples were read at 450 nm using POLARstar OMEGA plate reader. All measurements were performed in triplicate
(§1) Compounds were dissolved in ETOH 75%/DMSO (5:1) at a final concentration of 5 mM and diluted in 1× PBS or ddH2O for incubation or toxicity assay (final concentration 5 μM). […]
ELISA assay was conducted as previously described (Lasagna-Reeves, Castillo-Carranza et al. 2010). […] The reaction was stopped using 100 μl of 1M HCl and absorbance was read at 450 nm using POLARstar OMEGA plate reader. […]

The target of data set [2] is T1, recombinant tau oligomers (TauO). The data set can be described thus: Dot blot of recombinant tau oligomers with and without compounds. It is filed as biochemical. The conditions noted are these: curcumin. As to the method:
The dot blot assay was performed as previously described (Lasagna-Reeves, Castillo-Carranza et al. 2010), to detect tau oligomers in the absence and presence of small molecules. Briefly, 1.5 μl of each end-product reaction was applied onto nitrocellulose membranes and then blocked with 10% nonfat milk in TBS-T overnight at 4° C. Next day, membranes were probed with T22 (1:250) for immunoreactivity with tau oligomers and Tau5 (1:10000) for total tau, diluted in 5% nonfat milk for 1 hour at RT. Membranes were then washed three time with TBS-T and incubated with horseradish peroxidase-conjugated IgG anti-rabbit (1:10000) and anti-mouse (1:10000) secondary antibodies to detect, T22 and Tau5, respectively. Blots were then washed three times in TBS-T and exposed to ECL plus (GE Healthcare) was used for signal detection. Densitometric analysis of each band was quantified using Image J.
as §1
Densitometric analysis of each band was quantified using Image J and analyzed by two-way ANOVA followed by Dunnett's multiple comparisons test, performed using GraphPad Prism 6.01.

The subject of data set [3] is SH-SY5Y human neuroblastoma cells. Briefly: MTT viability of SH-SY5Y cells exposed to TauO pre-incubated with compound. It is filed as cell-based. As to conditions: 2 μM TauO; curcumin final concentration 10 μM. As to the method: Human neuroblastoma SH-SY5Y cells were maintained in Dulbecco's modified Eagle's medium (DMEM) and grown to confluence in 96-well plates. […] Cells viability was corrected by the vehicle background. All measurements were performed in triplicate. The cytotoxic effect was determined using 3-(4,5-dimethylthiazol-2-yl)-2,5-diphenyltetrazolium bromide (MTT) assay for assessing cell viability following manufacturers' instructions. Optical density (OD) was measured at 490 nm with POLARstar OMEGA plate reader (BMG Labtechnologies). Cell viability was calculated as the percentage of the OD value of treated cells compared with untreated controls, according to the following equation: Viability=(OD SAMPLE/OD CONTROL)×100. […]
Human neuroblastoma SH-SY5Y cells were maintained in Dulbecco's modified Eagle's medium (DMEM) and grown to confluence in 96-well plates. […] The cytotoxic effect was determined using 3-(4,5-dimethylthiazol-2-yl)-2,5-diphenyltetrazolium bromide (MTT) assay for assessing cell viability following manufacturer's instructions. Optical density (OD) was measured at 490 nm with POLARstar OMEGA plate reader (BMG Labtechnologies). Cell viability was calculated as the percentage of the OD value of treated cells compared with untreated controls, according to the following equation: Viability=(OD SAMPLE/OD CONTROL)×100. […]

The conditions of data set [4]: cited from earlier work.
The conditions of data set [5]: in vivo; cited from earlier work.

T1 sequence (P10636 1-441 isoform P10636-8): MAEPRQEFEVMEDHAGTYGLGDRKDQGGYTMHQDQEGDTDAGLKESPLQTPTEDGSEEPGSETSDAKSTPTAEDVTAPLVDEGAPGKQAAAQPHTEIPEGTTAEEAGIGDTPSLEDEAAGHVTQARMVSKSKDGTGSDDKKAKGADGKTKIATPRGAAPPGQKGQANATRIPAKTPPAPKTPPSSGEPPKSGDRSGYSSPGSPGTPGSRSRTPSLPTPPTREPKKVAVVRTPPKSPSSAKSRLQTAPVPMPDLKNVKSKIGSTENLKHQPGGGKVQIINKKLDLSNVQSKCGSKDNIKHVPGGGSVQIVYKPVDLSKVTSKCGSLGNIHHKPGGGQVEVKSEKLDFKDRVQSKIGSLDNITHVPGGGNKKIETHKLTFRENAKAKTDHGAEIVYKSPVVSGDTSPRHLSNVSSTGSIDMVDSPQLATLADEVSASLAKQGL

As to `COc1cc(/C=C/C(=O)CC(=O)/C=C/c2ccc(O)c(OC)c2)ccc1O` [curcumin], the “tau oligomer level, T22 immunoreactivity, direct ELISA” value in data set [1] is given as “significant decrease in T22 immunoreactivity; also recorded: significant decrease in oligomers”. Moreover, the “oligomeric tau level, dot blot” value in data set [2] is listed as “decreased levels of oligomeric tau; also recorded: significant decrease in oligomers”. In addition, the “viability of SH-SY5Y cells exposed to TauO pre-incubated with curcumin” value in data set [3] was “significantly higher cells viability when compared to TauO alone; also recorded: rescued cells from TauO-induced toxicity”. Further, the “solubility in aqueous media” value in data set [4] is “poor solubility in aqueous buffers”. The bioavailability entry in data set [5] was “low brain bioavailability following oral administration”.
